Key:
[1] = tested on: Balb/c mice; experiment: Antibody-induced acute lung injury (TRALI model), protein content in BAL fluids; format: in vivo, mouse (Balb/c); details: antibodies 1 mg/kg i.v. or n-acetyl cysteine 150 mg/kg i.v. 5 min before anti-H2d 3.5 mg/kg; BAL 2 h later
Method: Antibody-induced acute lung injury. Balb/c male mice (8-12 week-old) were injected i.v. with 3.5 mg/kg of anti-H2d (clone 34-1-2s) or control H2b (clone 28-8-6s) antibodies. After 2 h, BAL was performed on anesthetized mice by 3 washes with 1 ml PBS each using a 18G needle, and the protein content assessed by the bicinchoninic acid method (BCA; Pierce, Rockford, Ill.). In some experiments, mice were pre-treated as follows: rabbit anti-platelet serum (25 μl; i.p. injection; Accurate Chemicals; Westbury, N.Y.) diluted in 200 μl of PBS, 2 h prior anti-H2d treatment; 1 mg/kg i.v. injection of control or anti-P-selectin, E-selectin or anti-αMβ2 antibodies 5 min before anti-H2d; 150 mg/kg i.v. injection of n-acetyl cysteine 5 min before anti-H2d . Platelet and leukocyte counts from blood samples obtained at the end of the experiment were determined using a hematological Coulter® AC-T diff™ l Analyzer (Beckman Coulter, Miami, Fla.). None of these treatments affected circulating leukocyte counts (not shown). In the TRALI experiments involving intravital imaging of the cremasteric microcirculation, TNF-α was injected intrascrotally to allow the recruitment and imaging of inflammatory leukocytes.

[2] = tested on: Balb/c mice; experiment: Vascular permeability, FITC-dextran extravasation in cremasteric venules after anti-H2d; format: in vivo, mouse (Balb/c); details: TNF-α-treated mice, pre-treatment with antibodies 1 mg/kg or n-acetyl cysteine 150 mg/kg, imaged 30 min later
Method: Vascular permeability. To analyze anti-MHC-I-induced vascular damage, Balb/c mice were intravenously infused with 3.5 mg/kg of anti-MHC-I antibodies (to H2d or control H2b) and 1 mg of FITC-Dextran (70 Kd; Sigma-Aldrich) 210 min after TNF-α-treatment.
In some experiments, mice were pre-treated with 25 μL rabbit anti-platelet serum to deplete platelets, 1 mg/kg of control, anti-E-selectin or anti-αMβ2 antibodies, or 150 mg/kg of n-acetyl cysteine. Random fields containing small venules were imaged 30 min later using the FITC channel under a LumPlanFl 10× objective, NA 0.30 w. Images were masked over a threshold to quantify all FITC-Dextran-associated fluorescence intensity as well as the signal corresponding only to intravascular spaces. The percentage of extravasated FITC-Dextran was finally obtained using the formula: [(Total intensity−Intravascular intensity)/Total intensity]×100.

[3] = tested on: ROS-producing adherent leukocytes; experiment: In vivo detection of ROS-producing adherent leukocytes (dihydroxyrhodamine-123, MFIM); parameters: species or system mouse (Balb/c); details: TNF-α-treated mice; pre-treatment with anti-E-selectin 1 mg/kg or n-acetyl cysteine 150 mg/kg
Method: In vivo detection of leukocytes producing reactive oxygen species (ROS). Balb/c mice prepared for MFIM were injected i.v. with 29 nmoles of dihydroxyrhodamine-123 (DHR; Molecular Probes, Eugene, Oreg.). DHR uptaken by leukocytes actively producing ROS converts into fluorescent rhodamine-123 (507/529 nm) which can be detected by a bright punctuated pattern in the FITC channel (FIG. 11). In some experiments, mice were pre-treated with 25 μL rabbit anti-platelet serum to deplete platelets, 1 mg/kg of anti-E-selectin antibody, or 150 mg/kg of n-acetyl cysteine. Images were captured in the brightfield and FITC channels before and after injection of 3.5 mg/kg anti-H2d antibody, and the frequency of ROS-producing cells calculated out of all adherent leukocytes in each venular segment.

[4] = tested on: nRBC interactions with adherent leukocytes; experiment: nRBC-leukocyte interactions, brightfield intravital microscopy of TNF-α-inflamed cremasteric venules; format: in vivo, mouse (C57BL/6); details: inhibitor given 120 min after TNF-α: PP2 150 μg/kg, SB203580 100 μg, piceatannol 1 mg; compared to vehicle control (DMSO); FIG. 2f
Method: Brightfield intravital microscopy. Brightfield intravital microscopy was performed as previously reported^21,22. For SCD mice, several postcapillary and collecting venules were recorded from 15 min after the surgical preparation (time=0 is surgical section of the cremaster) for 75 minutes (pre-TNF-α), with each venule recorded continuously for at least 2 min. SCD mice were then injected i.p. with 0.5 μg recombinant murine TNF-α (R & D Systems) and then the same venules were videotaped over a period of 90 min (91-180 min), after which venules were recorded again for another 90 min (181-270 min). The role of endothelial selectins was evaluated in identical experiments performed in Selp^−/− or Sele^−/− mice transplanted with BM cells from SCD donor mice, or using antibodies against P- or E-selectin (1 mg/kg) prior to surgery. […] In experiments with non-SCD C57BL/6 mice, TNF-α was administered intrascrotally and images recorded 160-210 min after cytokine injection. […]
Hemodynamic measurements and image analyses for brightfield intravital microscopy. The venular diameter was measured using a video caliper. Centerline RBC velocity was measured for each venule in real time using an optical Doppler velocimeter (Texas A&M, College Station, Tex.). […] Blood flow rate was calculated from the formula: Vmean×π×d^2/4. […]

SMILES | lung injury induced by anti-H2d (protein content in BAL fluids) [1] | vascular permeability (FITC-dextran extravasation) after anti-H2d [2] | vascular permeability (FITC-dextran extravasation) after anti-H2d ([2]; listed as N-acetyl-cysteine) | ROS-producing adherent leukocytes after anti-H2d [3] | nRBC (normal red blood cell) interactions with leukocytes [4]
CC(=O)N[C@@H](CS)C(=O)O [n-acetyl-cysteine] | completely prevented lung injury | completely prevented | prevents | prevents ROS generation | 
CC(C)(C)n1nc(-c2ccc(Cl)cc2)c2c(N)ncnc21 [PP2, 4-amino-5-(4-chlorophenyl)-7-(t-butyl)pyrazolo[3,4-d]pyramidine] |  |  |  |  | Inhibition of nRBC (normal red blood cell) interactions

From US20120039888A1, “Methods Of Inhibiting Inflammation-Associated Tissue Damage By Inhibiting Neutrophil Activity” (priority 2008, published 2012)
